# According to PubChem BioAssay (NCI):
#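 The compound was tested at five concentrations on cells cultured in 96-well plates, with a 48-hour exposure period. At the GI50, growth is halved. At the TGI there is no net growth.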
# Legend:
# Assay in all cases: NCI tumour cell line growth inhibition, 48 h
# [1] = test system: SF-268 CNS
# [2] = test system: HCT-15 colon
# [3] = test system: SW-620 colon
# [4] = test system: IGROV1 ovarian
# [5] = test system: NCI-H522 lung
# [6] = test system: HT29 colon
# [7] = test system: M14 melanoma
# [8] = test system: HCC-2998 colon
# [9] = test system: U251 CNS
# [10] = test system: DU-145 prostate
# [11] = test system: SK-MEL-5 melanoma
# [12] = test system: SN12C renal
# [13] = test system: HS 578T breast
# [14] = test system: SK-MEL-2 melanoma
# [15] = test system: MALME-3M melanoma
# [16] = test system: MOLT-4 leukemia
# [17] = test system: RPMI-8226 leukemia
# [18] = test system: T-47D breast
# [19] = test system: HCT-116 colon
# [20] = test system: SF-539 CNS
# [21] = test system: NCI-H226 lung
# [22] = test system: PC-3 prostate
# [23] = test system: A498 renal
# [24] = test system: HOP-62 NSCLC
# [25] = test system: TK-10 renal
# [26] = test system: MDA-MB-435
# [27] = test system: KM12 colon
# [28] = test system: 786-0 renal
# [29] = test system: NCI-H23 lung
# [30] = test system: A549 NSCLC
# [31] = test system: EKVX NSCLC
# [32] = test system: SR leukemia
# [33] = test system: OVCAR-3 ovarian
# [34] = test system: MCF7 breast
# [35] = test system: SK-OV-3 ovarian
# [36] = test system: OVCAR-8 ovarian
# [37] = test system: OVCAR-5 ovarian
# [38] = test system: COLO 205 colon
# [39] = test system: SF-295 CNS
# [40] = test system: CCRF-CEM leukemia
# [41] = test system: SK-MEL-28 melanoma
# [42] = test system: CAKI-1 renal
# [43] = test system: UACC-62 melanoma
# [44] = test system: BT-549 breast
# [45] = test system: MDA-MB-231 breast
# [46] = test system: HOP-92 NSCLC
# [47] = test system: SNB-19 CNS
# [48] = test system: HL-60(TB) leukemia
# [49] = test system: K-562 leukemia
# [50] = test system: RXF 393 renal
# [51] = test system: ACHN renal
# [52] = test system: UACC-257 melanoma
# [53] = test system: OVCAR-4 ovarian
# [54] = test system: UO-31 renal
# [55] = test system: NCI-H460 lung
# [56] = test system: SNB-75 CNS
# [57] = test system: MDA-MB-468 breast
structure (smiles),measurement,setting,value
N#Cc1c(-c2ccc(Cl)cc2)nc2n[nH]c(-c3ccc(Cl)cc3)c2c1-c1ccc(C(F)(F)F)cc1,GI50,[1],2.92 µM
same,TGI,[1],11.5 µM
same,GI50,[2],2.57 µM
same,TGI,[2],10.4 µM
same,GI50,[3],2.76 µM
same,TGI,[3],10.8 µM
same,GI50,[4],1.92 µM
same,TGI,[4],6.49 µM
same,GI50,[5],2.03 µM
same,TGI,[5],5.68 µM
same,GI50,[6],2.77 µM
same,TGI,[6],10.9 µM
same,GI50,[7],2.17 µM
same,TGI,[7],5.53 µM
same,GI50,[8],2.29 µM
same,TGI,[8],5.36 µM
same,GI50,[9],3.03 µM
same,TGI,[9],11.2 µM
same,GI50,[10],3.6 µM
same,TGI,[10],15.9 µM
same,GI50,[11],1.92 µM
same,TGI,[11],3.79 µM
same,GI50,[12],2.59 µM
same,TGI,[12],8.35 µM
same,GI50,[13],2.23 µM
same,TGI,[13],7.18 µM
same,GI50,[14],1.72 µM
same,TGI,[14],3.26 µM
same,GI50,[15],1.98 µM
same,TGI,[15],4.86 µM
same,GI50,[16],1.72 µM
same,TGI,[16],6.12 µM
same,GI50,[17],1.93 µM
same,TGI,[17],6.27 µM
same,GI50,[18],2.53 µM
same,TGI,[18],8.38 µM
same,GI50,[19],1.61 µM
same,TGI,[19],3.74 µM
same,GI50,[20],1.85 µM
same,TGI,[20],3.76 µM
same,GI50,[21],2.37 µM
same,TGI,[21],8.97 µM
same,GI50,[22],2.25 µM
same,TGI,[22],9.31 µM
same,GI50,[23],3.1 µM
same,TGI,[23],8.71 µM
same,GI50,[24],3.06 µM
same,TGI,[24],9.84 µM
same,GI50,[25],3.99 µM
same,TGI,[25],15.6 µM
same,GI50,[26],2.1 µM
same,TGI,[26],4.86 µM
same,GI50,[27],2.49 µM
same,TGI,[27],8.32 µM
same,GI50,[28],2.57 µM
same,TGI,[28],7.55 µM
same,GI50,[29],2.24 µM
same,TGI,[29],7.68 µM
same,GI50,[30],3.45 µM
same,TGI,[30],12 µM
same,GI50,[31],2.71 µM
same,TGI,[31],11.4 µM
same,GI50,[32],1.69 µM
same,TGI,[32],4.42 µM
same,GI50,[33],2.19 µM
same,TGI,[33],5.07 µM
same,GI50,[34],2.43 µM
same,TGI,[34],10.8 µM
same,GI50,[35],3.03 µM
same,TGI,[35],10.2 µM
same,GI50,[36],3.23 µM
same,TGI,[36],12.5 µM
same,GI50,[37],2.16 µM
same,TGI,[37],5.22 µM
same,GI50,[38],1.71 µM
same,TGI,[38],3.24 µM
same,GI50,[39],2.62 µM
same,TGI,[39],8.3 µM
same,GI50,[40],2.18 µM
same,TGI,[40],6.57 µM
same,GI50,[41],2.68 µM
same,TGI,[41],8.7 µM
same,GI50,[42],2 µM
same,TGI,[42],7.2 µM
same,GI50,[43],1.87 µM
same,TGI,[43],5.57 µM
same,GI50,[44],2.17 µM
same,TGI,[44],4.78 µM
same,GI50,[45],2.12 µM
same,TGI,[45],4.64 µM
same,GI50,[46],1.57 µM
same,TGI,[46],4.37 µM
same,GI50,[47],3.38 µM
same,TGI,[47],14.7 µM
same,GI50,[48],1.79 µM
same,TGI,[48],4.79 µM
same,GI50,[49],2.09 µM
same,TGI,[49],5.91 µM
same,GI50,[50],2.64 µM
same,TGI,[50],9.54 µM
same,GI50,[51],2.85 µM
same,TGI,[51],9.97 µM
same,GI50,[52],2.72 µM
same,TGI,[52],8 µM
same,GI50,[53],2.5 µM
same,TGI,[53],8.38 µM
same,GI50,[54],2.1 µM
same,TGI,[54],8.61 µM
same,GI50,[55],2.08 µM
same,TGI,[55],4.57 µM
same,GI50,[56],1.75 µM
same,TGI,[56],6.59 µM
same,GI50,[57],2.59 µM
same,TGI,[57],9.55 µM
